| melting point [°C] | Compound |
| --- | --- |
| 118 to 122 | COc1ccccc1[C@H](c1cccc2ccccc12)[C@@](C)(C#N)C(=O)N1CC=C(c2ccc(Cl)cc2)CC1 |
| 85 | COc1ccc2c(c1)Sc1c(cc(OC)c(O)c1Br)N2C(=O)OC(C)OC(=O)C(C)(C)C (stereo unspecified) |
| 220 to 222 | CSCC(=O)Nc1ccc(C2=NNC(=O)CC2C)cc1 (stereo unspecified) |
| 164 to 169 | O=C(NO)C1(NS(=O)(=O)c2ccc(OCc3ccc(Cl)cc3Cl)cc2)CC1c1ccccc1 (stereo unspecified) |
| 169 to 172 | CC(=O)OC1CCC2(C)C3=C(CCC2C1)C1CCC(C(C)=O)C1(C)CC3=O (stereo unspecified) |
| 198 to 201 | CC(=O)OC1(C(=O)CO)CCC2C3CC(C)C4=CC(=O)C=CC4(C)C3C(O)CC21C (stereo unspecified) |
| 254 to 255 | Nc1nnc(-c2ccc3ncn(-c4ccccc4Cl)c3c2)o1 |
| 92 to 95 | C#CCN1C(=O)CCc2cc(Cl)cc(Cl)c21 |
| 281 | COc1c(-c2ccc(O)c(O)c2)oc2cc(O)ccc2c1=O |
| 146 to 147 | COc1ccc(C(=O)N2CCC(N(C)c3ccccc3Cl)c3ccccc32)cc1OC (stereo unspecified) |
| 208 | O=C(Nc1ccc(C[C@H](NS(=O)(=O)N2CCCCC2)C(=O)O)cc1)c1c(Cl)cncc1Cl |
| 92 to 95 | CCOC(=O)C(=Cc1ccc(O)cc1)C(=O)CCl |
| 179 | Cc1cc2c(cc1-c1cc(C=C3SC(=O)NC3=O)ccc1OC(F)(F)F)C(C(C)C)=CCC2(C)C |
| 228 to 230 | CC(C)(C)c1cc(C(=O)c2ccc(C(=O)O)s2)cc(C(C)(C)C)c1O |
| 342 | Cn1c(=O)c(=O)[nH]c2cc(Cl)ccc21 |
| 245 to 247 | O=C(O)c1ccc(NC(c2ccc(Cl)cc2)c2ccc(Cl)cc2)cc1 |
| 230 to 233 | N#CCc1c(C(=O)O)cc2ccc3c(c2c1-c1ccc(F)cc1)OCO3 |
| 292 to 293 | COc1ccc2c(c1)cc1c3c(cccc32)C(=O)OC1=O |
| 71 to 72 | CCCCCCCCCCOc1cnc(-c2ccccc2C#CCC(C)O)nc1 (single isomer, unassigned; (-)) |
| 190 to 192 | CNC(=O)CC1CN=C(c2cc3cc(Oc4ccc(S(C)(=O)=O)cn4)cc(OC(C)C)c3[nH]2)S1 (stereo unspecified) |
| 98 to 102 | CC(C)Oc1cc(N2CCC(C(F)(F)F)CC2=O)c(F)cc1Cl (stereo unspecified) |
| 142 to 146 | CS(=O)Cc1cc(=O)c2ccccc2o1 (stereo unspecified) |
| 258 | Cc1ccc(N2C(=O)C(O)=C(C(=O)c3ccc(OC(F)(F)F)cc3)C2c2ccc(Cn3ncnn3)cc2)nn1 (stereo unspecified) |
| 110 to 111 | CCCCCCCCCCN1CCC2(CC1)CSC1=C(O2)c2ccccc2C(=O)C1=O |

| melting point [°C] | Compound |
| --- | --- |
| 108 to 109 | CC(=O)Oc1c(C)c(CCl)nc2ccccc12 |
| 305 to 308 | N=C(NO)c1ccc(-c2ccc(-c3nc4cc(C(=N)NO)ccc4[nH]3)cc2)nc1 |
| 93 to 95 | CC(=O)N1C=CC(C(C)=O)(c2ccccc2)C=C1 |
| > 300 | O=c1[nH]c2cc(Br)sc2[nH]c1=O |
| 164 to 165 | CC(C)c1cc(C(C)C)c(CC(=O)NS(=O)(=O)Oc2c(C(C)C)cc(SC#N)cc2C(C)C)c(C(C)C)c1 |
| 57 to 58 | OC1Cc2cc(F)c(F)cc2C1 |
| 193 to 195 | CC(=O)Oc1cc2c(c3ccccc13)Nc1ccc(C)cc1S2 |
| 105 to 109 | Cc1c(C)c(N2CCN(Cc3ccccc3)CC2)c(C)c2c1OC(C)(C)C2(O)c1ccc(F)nc1 (stereo unspecified) |
| 170 | CCOC(OCC)P(=O)(O)CCCN(C)Cc1ccc(Cl)cc1 |
| 229 to 234 | O=C(O)c1ccc(N2CCCC2)c(NC(=O)C(CS)Cc2ccccc2)c1 (stereo unspecified) |
| 114 to 116 | COc1ccc(NS(=O)(=O)c2cc(C)c3cc(C(C)C)ccc(C)c2-3)c(OC)c1 |
| 220 to 223 | CC(C)Cn1cnc2c(N)nc3c(c21)CCNC3 |
| 96 to 100 | Nc1cc(O)ccc1CCCl |
| 84 to 92 | CN(C)CCCNC(=O)[C@@H](Cc1ccc(-c2ccccc2)cc1)NC(=O)CC(C)(C)CC(=O)O |
| 100 to 103 | OC(CCN1CCN(c2ccccc2)CC1)COc1ccc(Br)cc1 (stereo unspecified) |
| 213 | Cc1cc(C)cc(-c2nc3ccc(O)cc3n2Cc2ccccc2CBr)c1 |
| 148 to 149 | COC(=O)c1sc(-c2ccc(OC)cc2)cc1NC(C)=O |
| 163 to 164 | C=CCNc1ncnc2c1ncn2Cc1c(F)cccc1Cl |
| 175 to 178 | CN(C)C(=O)c1cc(N(C)C)cc(C(=O)N(C)C)n1 |
| 141 to 143 | O=C1CCCN(C(=O)c2ccc(Cl)cc2)C(=O)CCc2cc(Cl)ccc21 |
| 81 to 84 | Cc1nc(Cl)n(-c2ccccc2)n1 |
| 271 to 272 | CC(=O)NC(C(=O)NC(C(=O)NC(Cc1ccccc1)C(O)C(Cc1ccccc1)NC(=O)C(NC(=O)C(NC(C)=O)C(C)C)C(C)C)C(C)C)C(C)C (stereo unspecified) |
| 135 to 137 | Cc1c(NC(=O)CC(CSC(=O)Cc2ccccc2)c2ccccc2)cccc1C(=O)O (stereo unspecified) |
| 155 to 157 | C=CCc1c(OCC(O)CN2CCN(Cc3ccc(Cl)cc3)CC2)ccc2c(OCc3ccccc3)cc(=O)oc12 (stereo unspecified) |

| melting point [°C] | Compound |
| --- | --- |
| 168 | CN(C)c1ccc(C=Cc2ccc(N)cc2)cc1 |
| 224 to 226 | O=C1CCC(N2Cc3c(OCc4ccc(CN5CCN(c6ccccn6)C(=O)C5)cc4)cccc3C2=O)C(=O)N1 (stereo unspecified) |
| 186 to 187 | Cc1c(NC(=O)c2ccc(OCc3ccccc3)cc2)ccc2cc(CN3CCCCC3)cnc12 |
| 127 to 128 | CC(c1ccc(-c2ccccc2)c(F)c1)c1cc(CO)no1 (stereo unspecified) |
| 140 to 141 | CC(C)CN(CCc1c[nH]c2ccccc12)C(=O)CCCC(=O)O |
| 141 to 148 | C[C@H]1Oc2ccc(F)cc2NC(=O)[C@H]1NC(=O)OC(C)(C)C |
| 153 to 155 | CN(CCO)c1nc(N)nc(-c2cc(Cl)ccc2Cl)n1 |
| 63 to 65 | N#CCC1(c2ccc(Cl)cc2)CCC1 |
| 219 to 221 | CC1(Cc2ccccc2)Cc2cc(O)c(Cl)c(Cl)c2C1=O (stereo unspecified) |
| 134 to 137 | CC(C)NCCC(CCN1CCCCC1)(C(N)=O)c1ccccc1Cl (stereo unspecified) |
| 228 to 230 | COc1ccc2ncc(C#N)c(Nc3cc(O)c(Cl)cc3F)c2c1 |
| 176 | COc1cc(NC(C)=O)c(Cl)cc1C(=O)N[C@H]1CCN(CCCOc2ccc(F)cc2)C[C@H]1OC (relative stereo) |
| 115 to 120 | O=C(O)CCCCNS(=O)(=O)c1ccc(N2CCCCC2)cc1 |
| > 200 | CN1CCN(S(=O)(=O)NC(Cc2ccccc2)C(=O)O)CC1 (stereo unspecified) |
| 242 to 248 | Clc1ccc(Nc2nc(-c3cccc(Br)n3)nc3ccccc23)cc1 |
| 154 to 156 | C=CC(=O)OC(C#N)Cc1ccc(OC)c(OC)c1 (stereo unspecified) |
| 75 to 77 | CC(=O)CCc1ccc2c(c1)C(=O)c1ccccc1-2 |
| 85 to 87 | COc1ccc(CON(Cc2ccccc2)S(C)(=O)=O)cc1 |
| 212 | Cc1c(F)c(F)c(CNc2ccc(O)c(C(=O)O)c2)c(F)c1F |
| 262 to 264 | CC1CC(=O)c2c(C(=O)Nc3ccc(F)cc3)c[nH]c2C1 (stereo unspecified) |
| 181 to 183 | CC(C)(C)ON=C1CC(=NOC(C)(C)C)c2ccccc2-c2ccccc21 |
| 93 to 99 | CC(C)(C)NC(=O)C(O)c1cccc(Cl)c1 (stereo unspecified) |

| Compound | melting point [°C] |
| --- | --- |
| CN1CC(CCCl)Oc2ncccc2C1=S (stereo unspecified) | 134 to 136 |

Reference: a melting point compilation (Tetko et al.; mined from patent text by program, amines drawn as free bases though some values may be those of a salt)
